In assay [1] the target is T1, human LH receptor (Homo sapiens, UniProt P22888).
T1 construct: expressed in transfected cells; host or cells: CHO cells, cotransfected with CRE/promotor-luciferase reporter
Description: CHO-LH in vitro bioactivity (CRE-luciferase reporter). Type of assay: cell-based. Particulars: CHO cells stably transfected with the human LH receptor, read-out: EC50 CHO LHR. As to the method: (§1) It has been shown that compounds of the above mentioned formula I show agonistic LH and FSH activity. […] Typically the FSH activity ranges from an activity of about 1% of the LH agonist stimulation to about 10% of the LH agonist stimulation.
(§2) LH agonistic activity of compounds were tested in Chinese Hamster Ovary (CHO) cells stably transfected with the human receptor and cotransfected with a cAMP responsive element (CRE)/promotor directing the expression of a firefly luciferase reporter gene. Binding of ligand to the Gs-coupled LH receptor will result in an increase of cAMP, which in turn will induce an increased transactivation of the luciferase reporter construct. The luciferase signal was quantified using a luminescence counter. For test compounds, EC50 values (concentration of test compound causing half-maximal (50%) stimulation) were calculated. For that purpose the software program GraphPad PRISM, version 3.0 (GraphPad software Inc., San Diego) was used.

Assay [2] deals with immature female mice. Description: In vivo bioactivity: ovulation induction in immature mice. Particulars: immature female mice primed with urinary FSH (Humegon 12.5 IU/animal), ova in the oviduct counted 24 hours after treatment. As to the method:
To measure LH in vivo activity of compounds, ovulation induction in immature mice can be studied. In this assay immature female mice are primed with urinary FSH and approximately 48 hours later treated with a LH agonistic compound. The animals are killed after LH agonist treatment and the number of ova in the oviduct is microscopically assessed.
To measure in vivo activity of LH/FSH receptor agonistic compounds ovulation induction in immature mice was studied. In this assay immature female mice were primed with urinary FSH (Humegon 12.5 IU/animal). Approximately 48 hours later the animals were treated with a LH/FSH agonistic compound at a dose-level of 50 mg/kg. The animals were killed 24 hours after LH/FSH agonist treatment and the number of ova in the oviduct was microscopically assessed.

Assay [3] deals with T2, human FSH receptor (Homo sapiens, UniProt P23945).
T2 construct: expressed in transfected cells; host or cells: CHO cells, transfected with luciferase reporter gene
T2 sequence (P23945 18-695): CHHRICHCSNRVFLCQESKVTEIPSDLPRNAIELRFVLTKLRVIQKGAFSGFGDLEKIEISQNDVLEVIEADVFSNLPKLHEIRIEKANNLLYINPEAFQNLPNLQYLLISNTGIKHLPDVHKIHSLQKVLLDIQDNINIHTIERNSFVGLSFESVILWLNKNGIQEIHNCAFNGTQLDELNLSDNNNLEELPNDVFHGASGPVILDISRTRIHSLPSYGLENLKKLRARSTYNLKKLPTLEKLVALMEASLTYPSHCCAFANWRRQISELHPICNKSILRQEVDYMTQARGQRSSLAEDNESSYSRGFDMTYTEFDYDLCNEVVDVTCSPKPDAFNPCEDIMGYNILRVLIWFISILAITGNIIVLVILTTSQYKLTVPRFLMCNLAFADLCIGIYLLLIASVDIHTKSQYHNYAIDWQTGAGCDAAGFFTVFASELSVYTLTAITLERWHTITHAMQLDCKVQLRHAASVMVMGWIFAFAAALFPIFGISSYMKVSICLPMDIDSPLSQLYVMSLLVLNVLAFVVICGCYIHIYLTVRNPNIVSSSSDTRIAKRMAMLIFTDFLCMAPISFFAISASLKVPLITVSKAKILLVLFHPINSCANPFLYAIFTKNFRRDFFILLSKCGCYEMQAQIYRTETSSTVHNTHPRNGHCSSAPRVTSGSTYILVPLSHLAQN
Description: CHO-FSH in vitro bioactivity (CRE-luciferase reporter). Particulars: CHO cells transfected with the human FSH receptor and luciferase reporter gene; read-out: EC50 CHO FSHR. Type of assay: cell-based. The protocol:
as §1, §2
In a similar way FSH agonistic activity of compounds was tested in CHO cells transfected with the luciferase reporter gene and the human FSH receptor.

T1 sequence (P22888 27-699): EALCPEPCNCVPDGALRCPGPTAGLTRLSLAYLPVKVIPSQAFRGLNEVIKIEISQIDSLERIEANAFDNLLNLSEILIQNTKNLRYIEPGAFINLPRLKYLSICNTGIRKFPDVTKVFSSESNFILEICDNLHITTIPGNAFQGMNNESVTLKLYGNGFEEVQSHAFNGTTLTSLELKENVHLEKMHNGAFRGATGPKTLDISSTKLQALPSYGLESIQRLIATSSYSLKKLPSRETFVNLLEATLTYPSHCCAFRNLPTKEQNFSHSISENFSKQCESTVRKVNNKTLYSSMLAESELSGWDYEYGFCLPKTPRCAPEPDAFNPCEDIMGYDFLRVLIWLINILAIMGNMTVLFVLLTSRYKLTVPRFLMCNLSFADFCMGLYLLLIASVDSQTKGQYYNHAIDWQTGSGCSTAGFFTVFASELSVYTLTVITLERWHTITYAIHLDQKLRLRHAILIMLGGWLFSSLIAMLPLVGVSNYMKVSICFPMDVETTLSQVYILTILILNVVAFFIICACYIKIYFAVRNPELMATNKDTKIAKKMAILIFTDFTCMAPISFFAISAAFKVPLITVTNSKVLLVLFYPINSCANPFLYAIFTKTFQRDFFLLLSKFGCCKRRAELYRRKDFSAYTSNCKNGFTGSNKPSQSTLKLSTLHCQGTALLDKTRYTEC

For the compound `CSc1nc(-c2cccc(NC(=O)CN3CCC3)c2)c2c(N)c(C(=O)NC(C)(C)C)sc2n1` [Example 1, tert-Butyl 5-amino-2-methylthio-4-(3-(2-(azetidin-1-yl)-acetamido)-phenyl)-thieno[2,3-d]pyrimidine-6-carboxamide], the concentration for a half-maximal effect (EC50) was determined as 0.00386 µM in assay [1] and 0.462 µM in assay [3]. Besides, the “mean no. of ova (50 mg/kg p.o.)” value in assay [2] worked out at 1.6.
Take `CSc1nc(-c2cccc(NC(=O)CN3CCOCC3)c2)c2c(N)c(C(=O)NC(C)(C)C)sc2n1` [Example 2, tert-Butyl 5-amino-2-methylthio-4-(3-(2-(morpholin-4-yl)-acetamido)-phenyl)-thieno[2,3-d]pyrimidine-6-carboxamide]: the results for the EC50 in assay [1] and in assay [3] were 0.00224 µM and 0.042 µM, respectively. In addition, the “mean no. of ova (50 mg/kg p.o.)” value in assay [2] turned out to be 9.3.
On the same counts, the results for `CSc1nc(-c2cccc(NC(=O)CN3CCSCC3)c2)c2c(N)c(C(=O)NC(C)(C)C)sc2n1` [Example 3, tert-Butyl 5-amino-2-methylthio-4-(3-(2-(thiomorpholin-4-yl)-acetamido)-phenyl)-thieno[2,3-d]pyrimidine-6-carboxamide] are 0.00803 µM, 1.04 µM and 19.8.
With `CSc1nc(-c2cccc(NC(=O)CN3CCCCC3)c2)c2c(N)c(C(=O)NC(C)(C)C)sc2n1` [Example 4, tert-Butyl 5-amino-2-methylthio-4-(3-(2-(piperidin-1-yl)-acetamido)-phenyl)-thieno[2,3-d]pyrimidine-6-carboxamide], the figures for the concentration for a half-maximal effect (EC50) in assay [1] and in assay [3] were 0.00663 µM and 0.201 µM, respectively.
On the same counts, the results for `CSc1nc(-c2cccc(NC(=O)CN3CCCC3)c2)c2c(N)c(C(=O)NC(C)(C)C)sc2n1` [Example 5, tert-Butyl 5-amino-2-methylthio-4-(3-(2-(pyrrolidin-1-yl)-acetamido)-phenyl)-thieno[2,3-d]pyrimidine-6-carboxamide] are 0.00668 µM and 0.48 µM.
As to `CSc1nc(-c2cccc(NC(=O)CN3CCNCC3)c2)c2c(N)c(C(=O)NC(C)(C)C)sc2n1` [Example 6, tert-Butyl 5-amino-2-methylthio-4-(3-(2-(piperazin-1-yl)-acetamido)-phenyl)-thieno[2,3-d]pyrimidine-6-carboxamide], the results for the EC50 in assay [1] and in assay [3] were 0.00317 µM and 0.15 µM, respectively.

A word on the EC50: it is the concentration that produces a half-maximal response.

These data come from patent US7317006B2, “Thieno[2,3-d]pyrimidines with combined LH and FSH agonistic activity” (N.V. Organon, priority 2001, dated 2008).
